In patent publication US10131652B2, “Pyrimidinyloxy benzene derivatives as herbicides” (E. I. DU PONT DE NEMOURS AND COMPANY, priority 2014, dated 2018):
Where two headings read alike, the source gives them in different places.

Legend:
Assay in all cases: Test D pre-/postemergence plant response
Assay type in all cases: in vivo
[1] = tested on: morningglory (Ipomoea coccinea); conditions: Ipomoea; for pest or weed control at 8 g/ha: 8 g ai/ha; for pest or weed control at 16 g/ha: 16 g ai/ha; for pest or weed control at 31 g/ha: 31 g ai/ha; for pest or weed control at 62 g/ha: 62 g ai/ha
In short: (§1)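 0 = no effect, 100 = complete control: plants were scored this way by visual comparison with controls 13 to 15 days post-treatment. Application was preemergence to sown loam/sand pots or postemergence to 2–18 cm seedlings in peat-based mix.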

[2] = tested on: oilseed rape (Brassica napus); conditions: Brassica napus; for plant injury at 8 g/ha: 8 g ai/ha; for plant injury at 16 g/ha: 16 g ai/ha; for plant injury at 31 g/ha: 31 g ai/ha; for plant injury at 62 g/ha: 62 g ai/ha
In short: as §1

[3] = tested on: pigweed (Amaranthus retroflexus); conditions: Amaranthus retroflexus; for pest or weed control at 8 g/ha: 8 g ai/ha; for pest or weed control at 16 g/ha: 16 g ai/ha; for pest or weed control at 31 g/ha: 31 g ai/ha; for pest or weed control at 62 g/ha: 62 g ai/ha
In short: as §1

[4] = tested on: ragweed (common ragweed, Ambrosia elatior); conditions: Ambrosia artemisiifolia; for pest or weed control at 8 g/ha: 8 g ai/ha; for pest or weed control at 16 g/ha: 16 g ai/ha; for pest or weed control at 31 g/ha: 31 g ai/ha; for pest or weed control at 62 g/ha: 62 g ai/ha
In short: as §1

[5] = tested on: soybean (Glycine max); conditions: Glycine max; for plant injury at 8 g/ha: 8 g ai/ha; for plant injury at 16 g/ha: 16 g ai/ha; for plant injury at 31 g/ha: 31 g ai/ha; for plant injury at 62 g/ha: 62 g ai/ha
In short: as §1

[6] = tested on: velvetleaf (Abutilon theophrasti); conditions: Abutilon theophrasti; for pest or weed control at 8 g/ha: 8 g ai/ha; for pest or weed control at 16 g/ha: 16 g ai/ha; for pest or weed control at 31 g/ha: 31 g ai/ha; for pest or weed control at 62 g/ha: 62 g ai/ha
In short: as §1

[7] = tested on: waterhemp (common waterhemp, Amaranthus rudis); conditions: Amaranthus tuberculatus; for pest or weed control at 8 g/ha: 8 g ai/ha; for pest or weed control at 16 g/ha: 16 g ai/ha; for pest or weed control at 31 g/ha: 31 g ai/ha; for pest or weed control at 62 g/ha: 62 g ai/ha
In short: as §1

[8] = tested on: winter wheat (Triticum aestivum); conditions: Triticum aestivum; for plant injury at 8 g/ha: 8 g ai/ha; for plant injury at 16 g/ha: 16 g ai/ha; for plant injury at 31 g/ha: 31 g ai/ha; for plant injury at 62 g/ha: 62 g ai/ha
In short: as §1

[9] = tested on: yellow nutsedge (Cyperus esculentus); conditions: Cyperus; for pest or weed control at 8 g/ha: 8 g ai/ha; for pest or weed control at 16 g/ha: 16 g ai/ha; for pest or weed control at 31 g/ha: 31 g ai/ha; for pest or weed control at 62 g/ha: 62 g ai/ha
In short: as §1

[10] = post-emergence, Postemergence, scale 0 to 100 (0 no effect, 100 complete control), read-out: Morningglory plant response rating
[11] = pre-emergence, Preemergence, scale 0 to 100 (0 no effect, 100 complete control), read-out: Plant response rating, Morningglory
[12] = post-emergence, Postemergence, scale 0 to 100 (0 no effect, 100 complete control), read-out: Oilseed Rape plant response rating
[13] = pre-emergence, Preemergence, scale 0 to 100 (0 no effect, 100 complete control), read-out: Plant response rating, Oilseed Rape
[14] = post-emergence, Postemergence, scale 0 to 100 (0 no effect, 100 complete control), read-out: Pigweed plant response rating
[15] = pre-emergence, Preemergence, scale 0 to 100 (0 no effect, 100 complete control), read-out: Plant response rating, Pigweed
[16] = post-emergence, Postemergence, scale 0 to 100 (0 no effect, 100 complete control), read-out: Ragweed plant response rating
[17] = pre-emergence, Preemergence, scale 0 to 100 (0 no effect, 100 complete control), read-out: Plant response rating, Ragweed
[18] = post-emergence, Postemergence, scale 0 to 100 (0 no effect, 100 complete control), read-out: Soybean plant response rating
[19] = pre-emergence, Preemergence, scale 0 to 100 (0 no effect, 100 complete control), read-out: Plant response rating, Soybean
[20] = post-emergence, Postemergence, scale 0 to 100 (0 no effect, 100 complete control), read-out: Velvetleaf plant response rating
[21] = pre-emergence, Preemergence, scale 0 to 100 (0 no effect, 100 complete control), read-out: Plant response rating, Velvetleaf
[22] = post-emergence, Postemergence, scale 0 to 100 (0 no effect, 100 complete control), read-out: Waterhemp plant response rating
[23] = pre-emergence, Preemergence, scale 0 to 100 (0 no effect, 100 complete control), read-out: Plant response rating, Waterhemp
[24] = post-emergence, Postemergence, scale 0 to 100 (0 no effect, 100 complete control), read-out: Wheat plant response rating
[25] = pre-emergence, Preemergence, scale 0 to 100 (0 no effect, 100 complete control), read-out: Plant response rating, Wheat
[26] = post-emergence, Postemergence, scale 0 to 100 (0 no effect, 100 complete control), read-out: Nutsedge, Yellow plant response rating
[27] = pre-emergence, Preemergence, scale 0 to 100 (0 no effect, 100 complete control), read-out: Plant response rating, Nutsedge, Yellow

Question: Which pest or weed control at 8 g/ha ([1]; post-emergence, Postemergence, read-out: Plant response rating (scale 0 to 100), Morningglory) does the source give for FC(F)c1cc(-c2ccccc2Oc2ncc(Cl)cn2)no1 [Compound 35, 5-chloro-2-[2-[5-(difluoromethyl)-3-isoxazolyl]phenoxy]pyrimidine] here?
Answer: 25%

Question: And the pest or weed control at 16 g/ha [1, 10]?
Answer: 60%

Question: And the pest or weed control at 31 g/ha [1, 10]?
Answer: 85%

Question: What about the pest or weed control at 62 g/ha ([1]; post-emergence, Postemergence, scale 0 to 100, 0 no effect, 100 complete control, read-out: Plant response rating, Morningglory) of the same compound?
Answer: 98%

Question: And the pest or weed control at 8 g/ha [1, 11]?
Answer: 0%

Question: What about the pest or weed control at 16 g/ha [1, 11] of the same compound?
Answer: 0%

Question: And the pest or weed control at 31 g/ha [1, 11]?
Answer: 55%

Question: What about the pest or weed control at 62 g/ha [1, 11] of the same compound?
Answer: 90%

Question: What about the plant injury at 8 g/ha ([2]; post-emergence, Postemergence, read-out: Plant response rating (scale 0 to 100), Oilseed Rape) of the same compound?
Answer: 5%

Question: And the plant injury at 16 g/ha [2, 12]?
Answer: 45%

Question: And the plant injury at 31 g/ha [2, 12]?
Answer: 80%

Question: And the plant injury at 62 g/ha ([2]; post-emergence, Postemergence, scale 0 to 100, 0 no effect, 100 complete control, read-out: Plant response rating, Oilseed Rape)?
Answer: 98%

Question: And the plant injury at 8 g/ha [2, 13]?
Answer: 85%

Question: What about the plant injury at 16 g/ha [2, 13] of the same compound?
Answer: 98%

Question: What about the plant injury at 31 g/ha [2, 13] of the same compound?
Answer: 100%

Question: And the plant injury at 62 g/ha [2, 13]?
Answer: 100%

Question: What about the pest or weed control at 8 g/ha ([3]; post-emergence, Postemergence, read-out: Plant response rating (scale 0 to 100), Pigweed) of the same compound?
Answer: 80%

Question: What about the pest or weed control at 16 g/ha [3, 14] of the same compound?
Answer: 80%

Question: And the pest or weed control at 31 g/ha [3, 14]?
Answer: 90%

Question: And the pest or weed control at 62 g/ha ([3]; post-emergence, Postemergence, scale 0 to 100, 0 no effect, 100 complete control, read-out: Plant response rating, Pigweed)?
Answer: 95%

Question: And the pest or weed control at 8 g/ha [3, 15]?
Answer: 100%

Question: And the pest or weed control at 16 g/ha [3, 15]?
Answer: 100%

Question: And the pest or weed control at 31 g/ha [3, 15]?
Answer: 100%

Question: What about the pest or weed control at 62 g/ha [3, 15] of the same compound?
Answer: 100%

Question: And the pest or weed control at 8 g/ha ([4]; post-emergence, Postemergence, read-out: Plant response rating (scale 0 to 100), Ragweed)?
Answer: 40%

Question: What about the pest or weed control at 16 g/ha [4, 16] of the same compound?
Answer: 45%

Question: What about the pest or weed control at 31 g/ha [4, 16] of the same compound?
Answer: 85%

Question: And the pest or weed control at 62 g/ha ([4]; post-emergence, Postemergence, scale 0 to 100, 0 no effect, 100 complete control, read-out: Plant response rating, Ragweed)?
Answer: 75%

Question: What about the pest or weed control at 8 g/ha [4, 17] of the same compound?
Answer: 55%

Question: And the pest or weed control at 16 g/ha [4, 17]?
Answer: 40%

Question: And the pest or weed control at 31 g/ha [4, 17]?
Answer: 75%

Question: And the pest or weed control at 62 g/ha [4, 17]?
Answer: 80%

Question: And the plant injury at 8 g/ha ([5]; post-emergence, Postemergence, read-out: Plant response rating (scale 0 to 100), Soybean)?
Answer: 40%

Question: What about the plant injury at 16 g/ha [5, 18] of the same compound?
Answer: 65%

Question: And the plant injury at 31 g/ha [5, 18]?
Answer: 80%

Question: What about the plant injury at 62 g/ha ([5]; post-emergence, Postemergence, scale 0 to 100, 0 no effect, 100 complete control, read-out: Plant response rating, Soybean) of the same compound?
Answer: 95%

Question: And the plant injury at 8 g/ha [5, 19]?
Answer: 10%

Question: And the plant injury at 16 g/ha [5, 19]?
Answer: 30%

Question: And the plant injury at 31 g/ha [5, 19]?
Answer: 60%

Question: And the plant injury at 62 g/ha [5, 19]?
Answer: 85%

Question: What about the pest or weed control at 8 g/ha ([6]; post-emergence, Postemergence, read-out: Plant response rating (scale 0 to 100), Velvetleaf) of the same compound?
Answer: 30%

Question: And the pest or weed control at 16 g/ha [6, 20]?
Answer: 50%

Question: And the pest or weed control at 31 g/ha [6, 20]?
Answer: 55%

Question: What about the pest or weed control at 62 g/ha ([6]; post-emergence, Postemergence, scale 0 to 100, 0 no effect, 100 complete control, read-out: Plant response rating, Velvetleaf) of the same compound?
Answer: 65%

Question: And the pest or weed control at 8 g/ha [6, 21]?
Answer: 65%

Question: What about the pest or weed control at 16 g/ha [6, 21] of the same compound?
Answer: 85%

Question: What about the pest or weed control at 31 g/ha [6, 21] of the same compound?
Answer: 85%

Question: And the pest or weed control at 62 g/ha [6, 21]?
Answer: 100%

Question: What about the pest or weed control at 8 g/ha ([7]; post-emergence, Postemergence, read-out: Plant response rating (scale 0 to 100), Waterhemp) of the same compound?
Answer: 75%

Question: And the pest or weed control at 16 g/ha [7, 22]?
Answer: 75%

Question: And the pest or weed control at 31 g/ha [7, 22]?
Answer: 95%

Question: And the pest or weed control at 62 g/ha ([7]; post-emergence, Postemergence, scale 0 to 100, 0 no effect, 100 complete control, read-out: Plant response rating, Waterhemp)?
Answer: 98%

Question: And the pest or weed control at 8 g/ha [7, 23]?
Answer: 100%

Question: What about the pest or weed control at 16 g/ha [7, 23] of the same compound?
Answer: 100%

Question: And the pest or weed control at 31 g/ha [7, 23]?
Answer: 100%

Question: And the pest or weed control at 62 g/ha [7, 23]?
Answer: 100%

Question: What about the plant injury at 8 g/ha ([8]; post-emergence, Postemergence, read-out: Plant response rating (scale 0 to 100), Wheat) of the same compound?
Answer: 0%

Question: And the plant injury at 16 g/ha [8, 24]?
Answer: 0%

Question: And the plant injury at 31 g/ha [8, 24]?
Answer: 5%

Question: And the plant injury at 62 g/ha ([8]; post-emergence, Postemergence, scale 0 to 100, 0 no effect, 100 complete control, read-out: Plant response rating, Wheat)?
Answer: 10%

Question: What about the plant injury at 8 g/ha [8, 25] of the same compound?
Answer: 0%

Question: What about the plant injury at 16 g/ha [8, 25] of the same compound?
Answer: 0%

Question: And the plant injury at 31 g/ha [8, 25]?
Answer: 5%

Question: What about the plant injury at 62 g/ha [8, 25] of the same compound?
Answer: 15%

Question: And the pest or weed control at 8 g/ha ([9]; post-emergence, Postemergence, read-out: Plant response rating (scale 0 to 100), Nutsedge, Yellow)?
Answer: 5%

Question: What about the pest or weed control at 16 g/ha [9, 26] of the same compound?
Answer: 5%

Question: And the pest or weed control at 31 g/ha [9, 26]?
Answer: 5%

Question: And the pest or weed control at 62 g/ha ([9]; post-emergence, Postemergence, scale 0 to 100, 0 no effect, 100 complete control, read-out: Plant response rating, Nutsedge, Yellow)?
Answer: 5%

Question: And the pest or weed control at 8 g/ha [9, 27]?
Answer: 0%

Question: What about the pest or weed control at 16 g/ha [9, 27] of the same compound?
Answer: 0%

Question: And the pest or weed control at 31 g/ha [9, 27]?
Answer: 5%

Question: What about the pest or weed control at 62 g/ha [9, 27] of the same compound?
Answer: 5%
